Measurements published in patent US6884777B1, “Method for treating respiratory distress syndrome” (The Nemours Foundation, priority 2000, dated 2005).

How the values were obtained:
pregnant rats = assay: Antenatal treatment of pregnant rats: weight of maternal and fetal lungs; format: in vivo, rat; settings: delivery at d18; for Weight fetal lung (g)/g fetus / Average weight fetal lungs: antenatal treatment 48 h; for Average weight fetal lungs: n = 9; for increase of average fetal lung weight in relation to body weight: i.p. at d16 of gestation and 24 h later, leptin 1 mg/kg, dexamethasone 6 mg/kg, vs control
Description: Leptin (1 mg/kg body weight) was administered to pregnant rats at d16 of gestation and 24 h later by intraperitoneal injection. Dexamethasone at 6 mg per kg body weight was administered at similar time intervals as leptin. In addition, the effect of a combination of leptin and dexamethasone treatment was tested. After 48 h of leptin, dexamethasone or leptin/dexamethasone exposure, premature delivery of the rat pups was induced at d18, which is similar to 30 weeks of gestation in the human. The fetuses from each litter were pooled and weighed, and various tissues from both the rat fetuses and mothers were also dissected and weighed. […] Antenatal treatment with dexamethasone increased fetal lung weight by 41%.

[1] = tested on: SP-B (surfactant protein-B); assay: Western blot of SP-B in 21-day gestation fetal rat lung explants cultured with leptin; format: cell-based; settings: d21 explants
Description: FIG. 1 is a Western blot analysis of SP-B (surfactant protein-B) from 21-day gestation, fetal rat lung explants cultured in the presence or absence of leptin. Fetal lung explants were exposed to either (A) 1 ng/ml or (B) 10 ng/ml leptin from initiation of culture (day 0). Explants were harvested and protein extracts were prepared on days (d) 1, 2, and 3 of culture. Western blots were probed with an antibody specific to rat SP-B.
We have used a fetal lung explant model to mimic the conditions of the premature lung. Lungs from d21 rat fetuses, term being 22 days, were dissected free of heart, trachea and bronchi and placed in ice-cold serum free Waymouth medium and cut into 1 mm^3 pieces on a McIlwain tissue chopper. The lung explants were placed in tissue culture dishes that were scratched (along each half) to facilitate attachment of explants. The excess medium was aspirated and fresh medium (2 ml for 60 mm plate) was gently placed on the explants. The 17-21 d explants were incubated in 95% O2-5% CO2, since incubation of these explants in 5% CO2 in air can cause compression of airways (Gross and Wilson, J. Appl. Physiol. 55: 1725-32, 1983). The petri dishes were placed on a tilting platform and allowed to rest for 90 min in a humidified atmosphere in a CO2 incubator. Thereafter, the plates were tilted at 34 cycles per minute so that during each cycle, one half of the petri dish was exposed to gas phase and the other half was covered with the medium. Leptin at either 1 or 10 ng/ml was added to the explant cultures on the day of establishment of the culture (day 0). The explants were cultured for varying periods of time for up to 3 days, and protein extracts were prepared to establish a time course for leptin effects on the fetal lung. Surfactant proteins were separated by electrophoresis on 15% polyacrylamide—SDS gels, and transferred to nitrocellulose membranes by electroblotting. The membranes were blocked with 2% gelatin (BioRad), treated overnight with anti-SP-B, and then with secondary antibody (goat anti-rabbit HRP-conjugated antibody). […]

SP-A, SP-B, SP-C mRNA = assay: RT-PCR of surfactant protein mRNA in day 17 fetal lung explant cultures; format: cell-based, rat; settings: 1 ng/ml leptin
Description: Cultures were exposed to 1 ng/ml leptin (lanes 3, A-C) or control medium (lanes 2, A-C), and total RNA was isolated at the indicated day of culture. Total RNA was reverse transcribed and amplified with both β-actin and […] PCR primers. In each figure, lane 1 is the time of initiation of culture (day 0). Low levels of all surfactant RNAs were detected in the uncultured cells (lanes 1, A-C). The size of the β-actin RT/PCR product is 492 bp; the size of SP-A is 352 bp; SP-B is 201 bp, and SP-C is 284 bp.
Qualitative RT/PCR detection of surfactant mRNA was performed using the Ambion QuantumRNA kit (Ambion, Austin, Tex.) and 1 μg of total RNA isolated from explants cultured for 3 days in culture. Lanes 1, 3,5: control day 3; lanes 2, 4, 6: 1 ng/ml leptin day 3.
To explore the effect of gestational age on surfactant production in response to leptin, we exposed younger lung explant cultures (d17) to 1 ng/ml leptin. Total RNA was extracted by homogenizing the explants in 4M guanidine thiocyanate, applying the lysate on a Qiagen RNeasy column (Qiagen, Chatsworth, Calif.), and recovering total RNA according to the manufacturer's instructions. RNA was quantified by measurement of absorbancy at 260 nm (A260). The quality of RNA was assessed by the A260/A280 ratio and by separation on agarose gels. Total RNA (1 μg) was brought up to 10 μl in DEPC-treated water. The sample was heated to 75° C. for 3 min, placed on ice, and cDNA synthesis was performed by reverse transcription for 15 min at 42° C. in a 20 μl reaction containing 1×PCR buffer II (Perkin-Elmer), 5 mM MgCl2, 1.25 mM each dNTP, 1 U/μl RNasin (Promega), 12.5 μg/μl oligo (dT) 15, and 2.5 U/μl AMV reverse transcriptase (Promega Madison, Wis.). Subsequent amplification of the cDNA sequence was performed with 10 μl of the reverse transcription reaction in 1×Taq buffer, 5% DMSO, 25 pmol each primer (Table 1), and 1.25 U Taq polymerase in a 50 μl reaction volume.
For assessment of the relative levels of SP-A, SP-B and SP-C transcripts, a multiplex RT/PCR reaction with β-actin was used. The temperature profile for the PCR reactions consisted of a 2 min melting step at 95° C., then 30 cycles of 30 s at 94° C., 30 s at 55° C., and 60 sec at 65° C., followed by a final extension step of 5 min at 72° C. RT-PCR products were separated by size on a 4% agarose gel and stained with ethidium bromide. Gel visualization and quantitative analysis of relative band intensities was performed using Eagle Eye II hardware and software (Stratagene, La Jolla, Calif.).
However, leptin also increases the levels of P-actin in fetal lung explant cultures. […] Therefore, we chose to use 18S rRNA to determine the relative levels of surfactant mRNA because of the invariant expression of 18S rRNA across tissues and treatments. Since 18S rRNA is much more abundant than any mRNA species, modified 18S rRNA primers called competimers (Ambion) are used that cannot be extended by Taq polymerase. By adjusting the ratio of competimers to normal 18S rRNA primers, the RT/PCR signal for 18S rRNA can be decreased to the level of even rare messages, as described by the manufacturer. […] These experiments support the hypothesis that leptin has an effect on the maturation of type II alveolar cells.

[2] = tested on: leptin receptor OB-Rb mRNA; assay: RT-PCR of leptin receptor expression in day 17 fetal lung explant cultures; format: cell-based, rat; settings: d17 fetal lung explants, 3 days; 1 ng/ml leptin or 10 nM dexamethasone
Description: FIG. 4 depicts RT-PCR analysis of leptin receptor expression in day 17 fetal lung explant cultures. Total RNA was reverse transcribed and amplified with either the short (OB-Ra) or the long (OB-Rb) form of the leptin receptor. Day 0 (Cd0) represents the time of initiation of culture. The fetal lung explants were exposed for 3 days to either control medium (Cd3), 1 ng/ml leptin (Ld3), or 10 nM dexamethasone (Dexd3). The size of the OB-Ra RT/PCR product is 479 bp and OB-Rb is 262 bp.
To explore the effect of gestational age on surfactant production in response to leptin, we exposed younger lung explant cultures (d17) to 1 ng/ml leptin. Total RNA was extracted by homogenizing the explants in 4M guanidine thiocyanate, applying the lysate on a Qiagen RNeasy column (Qiagen, Chatsworth, Calif.), and recovering total RNA according to the manufacturer's instructions. RNA was quantified by measurement of absorbancy at 260 nm (A260). The quality of RNA was assessed by the A260/A280 ratio and by separation on agarose gels. Total RNA (1 μg) was brought up to 10 μl in DEPC-treated water. […]

[3] = tested on: isolated type II alveolar cells; assay: RT-PCR of surfactant and GAPDH mRNA in cultured isolated fetal type II alveolar cells; format: cell-based, rat; settings: 1 ng/ml leptin, 24 h, d19 type II cells
Description: FIG. 5 depicts RT-PCR analysis of surfactant and GADPH (glyceraldehyde phosphate dehydrogenase) mRNA expression in cultured isolated type II alveolar cells. Cells were exposed to either 1 ng/ml leptin (1 L) or 10 ng/ml leptin (10 L). Control cells were not exposed to leptin.
To determine if the leptin effect on surfactant production was due to a direct effect of leptin on the type II alveolar cell, we determined whether the effects of leptin could be reproduced in isolated type II alveolar cells in culture. Alveolar type II cells were obtained from the lungs of 19-d gestation fetal rats by the method described by Bhandari et al., (Pediatr. Res. 41:166-71, 1997). In brief, lungs of 19-day gestation fetal rats were removed, dissected free of connective tissue and nonparenchymal pulmonary tissue, and cultured as explants for 40-48 h in serum free Waymouth MB 752/1 medium with penicillin and streptomycin in humidified 95% O2/5% CO2 at 37° C. […] The explant cells were then harvested and the cells dissociated using a solution of collagenase, trypsin and DNase. The mixed cell suspension was subjected to three differential adhesions to remove fibroblasts. The non-adherent suspension containing an enriched population of fetal type II cells was plated at 2×10^6 cells/35 mm dish in 2 ml of minimum essential medium containing penicillin (100 U/ml), kanamycin ([…]) and 2% fetal bovine serum. The cells were cultured for 20-22 h at 37° C. in […] (Bhandari et al., Pediatr. Res. 41:166-71, 1997). Cultures contain 90-95% type II cells of which >99% are viable as determined by exclusion of the vital dye, trypan blue. The usual yield of type II cells from the lungs of the fetuses (10-16) per pregnant rat is approximately 10^7 cells.
Type II cells from d19 fetal lungs were cultured for 24 h and then exposed to either 1 or 10 ng/ml leptin for 24 h. Total RNA was isolated from these cells and then examined for SP-A, SP-B, SP-C, and GAPDH (housekeeping gene) mRNA expression.

type II alveolar cells = assay: Histologic analysis of fetal lung after antenatal treatment (alkaline phosphatase staining); format: in vivo, rat; settings: antenatal treatment for 48 h, alkaline phosphatase staining (FIG. 6)
Description: FIG. 6 depicts the effect of antenatal treatment with leptin or dexamethasone on fetal lung morphology. Fetal lung sections were stained with a histochemical stain for alkaline phosphatase, which identifies type II cells. Control, no leptin; dexamethasone (6 mg/ml for 48 h); leptin (0.25 mg/ml for 48 h).
Histologic analysis of the lung tissue was done to determine the basis for the increased fetal lung weight. Type II cells were identified by alkaline phosphatase staining as previously described (Post and Smith, Am. Rev. Respir. Dis. 137: 525-30, 1988). Unfixed frozen 5 μm sections of fetal lung tissue were stained histochemically with alkaline phosphatase at pH 8.74 to identify type II alveolar cells. Slides were incubated for 60 minutes at 37° C. in 25 ml of 0.2M Tris-HCl buffer and 25 ml of deionized water, 5 mg of Naphthol AS-BI phosphate, 0.1 ml dimethylformamide, and 30 mg of fast red TR. The slides were then rinsed in 3 changes of deionized water, counterstained for 30 seconds in Harris hematoxylin and blued in running water for 3-5 minutes. Slides were mounted from water in Advantage™.

ob/ob mice = settings: cited from earlier work
cornea from normal rats = settings: but not fa/fa Zucker rats, Sierra-Honigmann et al.; cited from earlier work
[4] = d17 explants, multiplex RT/PCR with β-actin (FIG. 2)
[5] = d17 lung explants, 3 days in culture

**Q.** What does the source list for `C[C@@H]1C[C@H]2[C@@H]3CCC4=CC(=O)C=C[C@]4(C)[C@@]3(F)[C@@H](O)C[C@]2(C)[C@@]1(O)C(=O)CO` [Dexamethasone, dexamethasone, reference compound]?
**A.** Weight fetal lung (g)/g fetus (pregnant rats): 0.52 g/g fetus; Average weight fetal lungs (pregnant rats): 0.79 (n = 9) g; increase of average fetal lung weight in relation to body weight (pregnant rats): 41%

**Q.** Which results are given for leptin?
**A.** SP-B production ([1]; 1 ng/ml leptin, 48 or 72 h exposure, vs control cultures): increases SP-B production above that of the control cultures; SP-B levels ([1]; 10 ng/ml leptin, 48 and 72 h): decreases SP-B levels; SP-B production ([1]; 10 ng/ml leptin, 24 h): increases SP-B production; SP-A mRNA levels (SP-A, SP-B, SP-C mRNA; [4]): significantly increases; SP-C mRNA levels (SP-A, SP-B, SP-C mRNA; [4]): significantly increases; SP-A mRNA level relative to 18S rRNA, increase (SP-A, SP-B, SP-C mRNA; [5]): 1.6 fold; SP-B mRNA level relative to 18S rRNA, increase (SP-A, SP-B, SP-C mRNA; [5]): 5 fold; SP-C mRNA level relative to 18S rRNA, increase (SP-A, SP-B, SP-C mRNA; [5]): 2 fold; levels of β-actin (SP-A, SP-B, SP-C mRNA; fetal lung explant cultures (FIG. 2)): increases; OB-Rb mRNA levels [2]: decreases; SP-A mRNA levels [3]: increased; SP-B mRNA levels [3]: increased; SP-C mRNA levels [3]: increased; Weight fetal lung (g)/g fetus (pregnant rats): 0.56 g/g fetus; Average weight fetal lungs (pregnant rats): 0.87 (n = 9) g; increase of average fetal lung weight in relation to body weight (pregnant rats): 51%; number of type II alveolar cells in fetal lung (type II alveolar cells): increase in the number of type II alveolar cells; respiratory depression (ob/ob mice; O'Donnell et al. 1999): prevent respiratory depression; volume-dependent decrease in lung compliance (ob/ob mice; Tankersley et al. 1998): ameliorated; neovascularization in cornea (cornea from normal rats): induces neovascularization
